Consider six compounds from patent US8076487B2, “Pyridone derivative and herbicide” (Kumiai Chemical Industry Co., Ltd., priority 2006, dated 2011).

Assay type in all cases: in vivo
Assay [1] has as its system early watergrass (Echinochloa oryzicola Vasing). In words: Test Example 1: herbicidal effect by soil application to paddy field. To be noted: paddy field soil application; active ingredient 1,000 g per 1 hectare; wettable powder added dropwise to water surface the day after sowing; examined on the 21st day after application. The method in brief: (§1)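 Under greenhouse conditions, seeds sown on puddled paddy soil in 100 cm2 pots under 3 cm of standing water received the test compound; injury was assessed with a standard scoring scheme three weeks (day 21) after treatment.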

The test system of assay [2] is Japanese bulrush (Scirpus juncoides Roxb.). Described as above. The following applies: paddy field soil application; active ingredient 1,000 g per 1 hectare; wettable powder added dropwise to water surface the day after sowing; examined on the 21st day after application. The essentials:
as §1

Assay [3] concerns heartshape false pickerelweed (Monochoria vaginalis (Burm.f.) C.Presl). The assay is described as above. To be noted: paddy field soil application; active ingredient 1,000 g per 1 hectare; wettable powder added dropwise to water surface the day after sowing; examined on the 21st day after application. The method in brief:
as §1

For assay [4], the system named is barnyardgrass (Echinochloa crus-galli (L.) P. Beauv. var. crus-galli). In words: Test Example 3: herbicidal effect by application to upland field (foliage treatment). The following applies: foliage treatment, 1,000 g active ingredient per 1 hectare, 14th day after application, greenhouse. The method in brief: (§2)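 Foliar spray on two-week-old greenhouse weeds in field soil: wettable powder formulation diluted in water, applied at 1,000 L/ha to give 1,000 g a.i./ha. Damage rated by a fixed scoring standard on day 14 after application.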

The test system of assay [5] is velvetleaf (Abutilon theophrasti medicus). Described as above. The following applies: foliage treatment, 1,000 g active ingredient per 1 hectare, 14th day after application, greenhouse. The essentials: as §2
In assay [6] the test system is slender amaranth (Amaranthus viridis L.). Described as above. The following applies: foliage treatment, 1,000 g active ingredient per 1 hectare, 14th day after application, greenhouse. The method in brief: as §2
The test system of assay [7] is green foxtail (Setaria viridis (L.) P. Beauv.). The description is as above. The following applies: foliage treatment, 1,000 g active ingredient per 1 hectare, 14th day after application, greenhouse. The method in brief: as §2
Assay [8] has as its system barnyardgrass (Echinochloa crus-galli (L.) P. Beauv. var. crus-galli). In words: Test Example 2: herbicidal effect by soil application to upland field. To be noted: soil surface spray, upland field soil, 1,000 g active ingredient per hectare, 21st day after application. The essentials: (§3)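 Herbicidal activity was graded on a standard scale on day 21 after soil application. The covered, freshly sown pots of field soil received an aqueous wettable-powder spray delivering 1,000 g active ingredient/ha at 1,000 liters/ha and were kept in a greenhouse.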

The test system of assay [9] is velvetleaf (Abutilon theophrasti medicus). The description is as above. To be noted: soil surface spray, upland field soil, 1,000 g active ingredient per hectare, 21st day after application. The essentials:
as §3

For assay [10], the system named is slender amaranth (Amaranthus viridis L.). The description is as above. To be noted: soil surface spray, upland field soil, 1,000 g active ingredient per hectare, 21st day after application. The essentials: as §3
The subject of assay [11] is green foxtail (Setaria viridis (L.) P. Beauv.). The description is as above. To be noted: soil surface spray, upland field soil, 1,000 g active ingredient per hectare, 21st day after application. The method in brief: as §3

For `CN(C)n1c(C(F)(F)F)ccc(C(=O)C2=C(O)CCCC2=O)c1=O` [I-171], the “herbicidal effect, Echinochloa oryzicola Vasing” value in assay [1] was 5 (90% or more of herbicidal effect and crop phytotoxicity). For the same compound, in assay [2], the “herbicidal effect, Scirpus juncoides Roxb.” value was 5 (90% or more of herbicidal effect and crop phytotoxicity). Also, in assay [3], the “herbicidal effect, Monochoria vaginalis (Burm. f.) C. Presl” value (“herbicidal effect, Monochoria vaginalis” below) is 5 (90% or more of herbicidal effect and crop phytotoxicity). Moreover, in assay [4], the “herbicidal effect, Barnyardgrass” value was 5 (90% or more of herbicidal effect and crop phytotoxicity). For the same compound, the “herbicidal effect, Velvetleaf” value in assay [5] is 5 (90% or more of herbicidal effect and crop phytotoxicity). The “herbicidal effect, Slender Amaranth” value in assay [6] is 5 (90% or more of herbicidal effect and crop phytotoxicity). Further, the “herbicidal effect, Green Foxtail” value in assay [7] was 4 (70 to less than 90% of herbicidal effect and crop phytotoxicity). For the same compound, the “herbicidal effect (index), Barnyardgrass” value in assay [8] was 5 (90% or more of herbicidal effect and crop phytotoxicity). The “herbicidal effect (index), Velvetleaf” value in assay [9] is 5 (90% or more of herbicidal effect and crop phytotoxicity). Besides, in assay [10], the “herbicidal effect (index), Slender Amaranth” value was 5 (90% or more of herbicidal effect and crop phytotoxicity). In [11], the “herbicidal effect (index), Green Foxtail” value was 4 (70 to less than 90% of herbicidal effect and crop phytotoxicity).

Consider `CCN(C)n1c(C(F)(F)F)ccc(C(=O)C2=C(O)CCCC2=O)c1=O` [I-175], for which, in [1], the “herbicidal effect, Echinochloa oryzicola Vasing” value is 5 (90% or more of herbicidal effect and crop phytotoxicity). In [2], the “herbicidal effect, Scirpus juncoides Roxb.” value was 5 (90% or more of herbicidal effect and crop phytotoxicity). Moreover, the “herbicidal effect, Monochoria vaginalis” value in [3] was 5 (90% or more of herbicidal effect and crop phytotoxicity). The “herbicidal effect, Barnyardgrass” value in assay [4] was 5 (90% or more of herbicidal effect and crop phytotoxicity). Also, in assay [5], the “herbicidal effect, Velvetleaf” value is 5 (90% or more of herbicidal effect and crop phytotoxicity). Also, the “herbicidal effect, Slender Amaranth” value in assay [6] is 5 (90% or more of herbicidal effect and crop phytotoxicity). For the same compound, the “herbicidal effect, Green Foxtail” value in assay [7] was 4 (70 to less than 90% of herbicidal effect and crop phytotoxicity). Also, the “herbicidal effect (index), Barnyardgrass” value in assay [8] is 5 (90% or more of herbicidal effect and crop phytotoxicity). For the same compound, the “herbicidal effect (index), Velvetleaf” value in assay [9] is 5 (90% or more of herbicidal effect and crop phytotoxicity). In addition, the “herbicidal effect (index), Slender Amaranth” value in assay [10] was 5 (90% or more of herbicidal effect and crop phytotoxicity). Further, in [11], the “herbicidal effect (index), Green Foxtail” value was 5 (90% or more of herbicidal effect and crop phytotoxicity).

In the case of `O=C1CCCC(O)=C1C(=O)c1ccc(C(F)(F)F)n(N2CCCC2)c1=O` [I-177], in [1], the “herbicidal effect, Echinochloa oryzicola Vasing” value was 5 (90% or more of herbicidal effect and crop phytotoxicity). The “herbicidal effect, Scirpus juncoides Roxb.” value in assay [2] was 5 (90% or more of herbicidal effect and crop phytotoxicity). The “herbicidal effect, Monochoria vaginalis” value in assay [3] is 5 (90% or more of herbicidal effect and crop phytotoxicity). For the same compound, the “herbicidal effect, Barnyardgrass” value in [4] was 5 (90% or more of herbicidal effect and crop phytotoxicity). In addition, the “herbicidal effect, Velvetleaf” value in assay [5] is 5 (90% or more of herbicidal effect and crop phytotoxicity). Besides, the “herbicidal effect, Slender Amaranth” value in assay [6] is 5 (90% or more of herbicidal effect and crop phytotoxicity). In addition, the “herbicidal effect, Green Foxtail” value in assay [7] is 4 (70 to less than 90% of herbicidal effect and crop phytotoxicity). Further, the “herbicidal effect (index), Barnyardgrass” value in assay [8] was 5 (90% or more of herbicidal effect and crop phytotoxicity). Further, the “herbicidal effect (index), Velvetleaf” value in assay [9] was 5 (90% or more of herbicidal effect and crop phytotoxicity). For the same compound, the “herbicidal effect (index), Slender Amaranth” value in assay [10] is 5 (90% or more of herbicidal effect and crop phytotoxicity). Further, the “herbicidal effect (index), Green Foxtail” value in assay [11] is 5 (90% or more of herbicidal effect and crop phytotoxicity).

Turning to `O=C1CCCC(O)=C1C(=O)c1ccc(C(F)(F)F)n(N2CCOCC2)c1=O` [I-178], in assay [1], the “herbicidal effect, Echinochloa oryzicola Vasing” value is 5 (90% or more of herbicidal effect and crop phytotoxicity). Besides, the “herbicidal effect, Scirpus juncoides Roxb.” value in assay [2] is 5 (90% or more of herbicidal effect and crop phytotoxicity). The “herbicidal effect, Monochoria vaginalis” value in assay [3] was 5 (90% or more of herbicidal effect and crop phytotoxicity). For the same compound, the “herbicidal effect, Barnyardgrass” value in assay [4] is 5 (90% or more of herbicidal effect and crop phytotoxicity). In addition, in assay [5], the “herbicidal effect, Velvetleaf” value is 5 (90% or more of herbicidal effect and crop phytotoxicity). Moreover, the “herbicidal effect, Slender Amaranth” value in assay [6] was 5 (90% or more of herbicidal effect and crop phytotoxicity). Also, the “herbicidal effect, Green Foxtail” value in assay [7] was 5 (90% or more of herbicidal effect and crop phytotoxicity). Moreover, the “herbicidal effect (index), Barnyardgrass” value in assay [8] is 5 (90% or more of herbicidal effect and crop phytotoxicity). The “herbicidal effect (index), Velvetleaf” value in assay [9] is 5 (90% or more of herbicidal effect and crop phytotoxicity). The “herbicidal effect (index), Slender Amaranth” value in assay [10] was 5 (90% or more of herbicidal effect and crop phytotoxicity). For the same compound, the “herbicidal effect (index), Green Foxtail” value in assay [11] was 5 (90% or more of herbicidal effect and crop phytotoxicity).

Turning to `CN(C)C=Nn1c(C(F)(F)F)ccc(C(=O)C2=C(O)CCCC2=O)c1=O` [I-186], in assay [1], the “herbicidal effect, Echinochloa oryzicola Vasing” value was 5 (90% or more of herbicidal effect and crop phytotoxicity). In [2], the “herbicidal effect, Scirpus juncoides Roxb.” value is 5 (90% or more of herbicidal effect and crop phytotoxicity). Also, the “herbicidal effect, Monochoria vaginalis” value in [3] is 5 (90% or more of herbicidal effect and crop phytotoxicity). Besides, the “herbicidal effect, Barnyardgrass” value in [4] was 5 (90% or more of herbicidal effect and crop phytotoxicity). Besides, in [5], the “herbicidal effect, Velvetleaf” value was 5 (90% or more of herbicidal effect and crop phytotoxicity). Besides, the “herbicidal effect, Slender Amaranth” value in assay [6] is 5 (90% or more of herbicidal effect and crop phytotoxicity). Further, in assay [7], the “herbicidal effect, Green Foxtail” value was 5 (90% or more of herbicidal effect and crop phytotoxicity). The “herbicidal effect (index), Barnyardgrass” value in [8] was 5 (90% or more of herbicidal effect and crop phytotoxicity). Moreover, the “herbicidal effect (index), Velvetleaf” value in assay [9] was 5 (90% or more of herbicidal effect and crop phytotoxicity). Besides, in assay [10], the “herbicidal effect (index), Slender Amaranth” value is 5 (90% or more of herbicidal effect and crop phytotoxicity). Besides, the “herbicidal effect (index), Green Foxtail” value in [11] is 5 (90% or more of herbicidal effect and crop phytotoxicity).

Take `COC(=O)N(C)n1c(C(F)(F)F)ccc(C(=O)C2=C(O)CCCC2=O)c1=O` [I-190]: the “herbicidal effect, Echinochloa oryzicola Vasing” value in [1] was 5 (90% or more of herbicidal effect and crop phytotoxicity). In [2], the “herbicidal effect, Scirpus juncoides Roxb.” value is 5 (90% or more of herbicidal effect and crop phytotoxicity). Further, the “herbicidal effect, Monochoria vaginalis” value in [3] was 5 (90% or more of herbicidal effect and crop phytotoxicity). In assay [4], the “herbicidal effect, Barnyardgrass” value is 5 (90% or more of herbicidal effect and crop phytotoxicity). Also, the “herbicidal effect, Velvetleaf” value in [5] was 5 (90% or more of herbicidal effect and crop phytotoxicity). For the same compound, the “herbicidal effect, Slender Amaranth” value in assay [6] is 5 (90% or more of herbicidal effect and crop phytotoxicity). In addition, the “herbicidal effect, Green Foxtail” value in [7] is 5 (90% or more of herbicidal effect and crop phytotoxicity). The “herbicidal effect (index), Barnyardgrass” value in assay [8] is 5 (90% or more of herbicidal effect and crop phytotoxicity). The “herbicidal effect (index), Velvetleaf” value in assay [9] is 5 (90% or more of herbicidal effect and crop phytotoxicity). For the same compound, the “herbicidal effect (index), Slender Amaranth” value in assay [10] is 5 (90% or more of herbicidal effect and crop phytotoxicity). For the same compound, in assay [11], the “herbicidal effect (index), Green Foxtail” value was 4 (70 to less than 90% of herbicidal effect and crop phytotoxicity).
